Results: the NIST ThermoML archive (doi:10.1021/je050420+)

Tests used:
[1] = Liquid; for mass density / speed of sound: 298.15 K, 101.33 kPa
[2] = refractive index (Na D-line) (dimensionless); details: 298.15 K; 101.33 kPa; Liquid; Standard Abbe refractometry
[3] = xn = mol fraction of the nth substance listed; details: 298.15 K, 101 kPa, Liquid

CCOC(C)=O [ethyl acetate]
Details	Normal boiling temperature [°C]	mass density [kg/m3]	refractive index	speed of sound [m/s]
[1]	77.00	894.3	–	1139.6
[2]	–	–	1.36978	–

CCC(C)CO (stereo not given) [2-methyl-1-butanol]
Details	mass density [kg/m3]	refractive index	speed of sound [m/s]
[1]	814.7	–	1251.8
[2]	–	1.40866	–

Details	Normal boiling temperature [°C]
[1], Ebulliometric method (Recirculating still)	128.78

CC(C)CO [2-methyl-1-propanol] + CCOC(C)=O
[3]
Details	mass density [kg/m3]
x2 = 0.049	802.3
x2 = 0.101	806.8
x2 = 0.153	811.5
x2 = 0.202	816
x2 = 0.251	820.6
x2 = 0.3	825.2
x2 = 0.35	829.9
x2 = 0.401	834.7
x2 = 0.451	839.5
x2 = 0.501	844.3
x2 = 0.55	849
x2 = 0.6	853.8
x2 = 0.65	858.8
x2 = 0.7	863.7
x2 = 0.751	868.9
x2 = 0.801	873.8
x2 = 0.85	878.7
x2 = 0.9	883.8
x2 = 0.95	888.9

CCC(C)CO (stereo not given) [2-methyl-1-butanol] + CCOC(C)=O
[3]
Details	mass density [kg/m3]
x2 = 0.05	817.8
x2 = 0.099	820.9
x2 = 0.15	824.2
x2 = 0.2	827.5
x2 = 0.25	830.9
x2 = 0.3	834.4
x2 = 0.349	838
x2 = 0.399	841.7
x2 = 0.451	845.6
x2 = 0.499	849.4
x2 = 0.549	853.3
x2 = 0.598	857.3
x2 = 0.65	861.6
x2 = 0.699	865.8
x2 = 0.75	870.2
x2 = 0.793	874.2
x2 = 0.846	879.1
x2 = 0.9	884.2
x2 = 0.95	889.1

CC(C)CO [2-methyl-1-propanol]
Details	mass density [kg/m3]	refractive index	speed of sound [m/s]
[1]	797.8	–	1186.4
[2]	–	1.39366	–

Details	Normal boiling temperature [°C]
[1], Ebulliometric method (Recirculating still)	107.78
